Source: patent US20030153548A1, “Histamine-3 receptor ligands for diabetic conditions” (priority 2002, published 2003)

Columns and labels:
[1] = test system: C57BL-6J mice fed a high-fat diet; test: Insulin tolerance test in mice fed a high-fat diet; format: in vivo; conditions: FIG. 1
Experimental: Assessment of the ability of H3 receptor antagonists to ameliorate symptoms of diabetes has been determined in several ways. In the first instance, effects of an H3 antagonist on the insulin tolerance test in mice fed a high-fat diet were determined. C57BL-6J mice (aged 5-6 weeks) were obtained from Jackson Labs (Bar Harbor, Me., U.S.A.) and individually housed at Abbott facilities under conditions of 12 h lights on, 12 h lights off (on at 22:00), with food and water available ad libitum. […] Nine days prior to drug treatment, postprandial blood glucose was determined via a Medisense-G glucometer (Abbott Laboratories, Medisense Division, Bedford, Mass., U.S.A.). […] On day 21, animals were fasted for 3 hours and fasting blood glucose determined in a blood sample obtained by tail snip. Insulin tolerance was determined by administering insulin (Lilly Humulin-R, 0.25 U/kg, i.p., obtained from Eli Lilly and Company, Indianapolis, Ind., U.S.A.) with blood glucose measured at 30, 60, 90 and 120 minutes using the glucometer. […] The 4′-{3-[(3R)-3-(dimethylamino)pyrrolidinyl]propoxy} [1,1′-biphenyl]-4-carbonitrile compound was administered p.o. at doses of 0.5, 5, and 15 mg/kg b.i.d., and dexfenfluramine at a dose of 10 mg/kg p.o., b.i.d. Data were analyzed using GraphPad InStat® (San Diego, Calif., U.S.A.) software using a one-way ANOVA software followed by Dunnett's post hoc test.

[2] = test system: C57BL-6J mice fed a high-fat diet; test: Serum triglyceride levels in mice fed a high-fat diet; format: in vivo; conditions: FIG. 2

CN(C)[C@@H]1CCN(CCCOc2ccc(-c3ccc(C#N)cc3)cc2)C1 [Compound A, 4′-{3-[(3R)-3-(dimethylamino)pyrrolidinyl]propoxy}[1,1′-biphenyl]-4-carbonitrile]
insulin tolerance test (blood glucose after insulin) ([1]; 15 mg/kg p.o. twice daily): completely normalized | insulin tolerance test (blood glucose after insulin) ([1]; 0.5, 5 and 15 mg/kg p.o. b.i.d., day 21, insulin 0.25 U/kg i.p.): dose-dependent improvement

CN(C)C1CCN(CCCOc2c(F)cc(-c3ccc(C#N)cc3)cc2F)C1 (centres unmarked) [Compound B]
triglyceride levels ([2]; 10 mg/kg p.o. b.i.d., after 13 days): reduced to the same level as those seen in low-fat diet fed mice | triglyceride levels ([2]; 1, 3 and 10 mg/kg p.o. b.i.d., postprandial blood after 13 days): clear, dose-dependent decrease

CC(C)CC(N(C)C)C1(c2ccc(Cl)cc2)CCC1 (centres unmarked) [sibutramine, reference compound]
triglyceride levels (effects as of Compound B) ([2]; 5 mg/kg p.o. b.i.d., after 13 days): not seen
